Measured values: publication PMC8998355, “Diversity-Oriented Synthesis Catalyzed by Diethylaminosulfur-Trifluoride—Preparation of New Antitumor Ecdysteroid Derivatives” (International Journal of Molecular Sciences, 2022)

Tests used:
[1] = set-up: method as in PMID 34825653; details: cited from earlier work
[2] = system: L5178YMDR cells (ABCB1-expressing); assay: MTT cytotoxicity assay (24 h, 1 × 10^4 cells); type: cell-based; details: Mus musculus, 24 h MTT, n = 3, read-out: Cytotoxicity (IC50 ± SD)
Procedure: (§1) To assess the compounds’ effect on cell growth and viability, we used two different experimental setups of MTT assay. This allowed a comparative evaluation of results obtained from a short-term (24 h) treatment of a relatively higher number (10,000) of cells and those from a long-term (72 h) treatment of a lower cell number (6000), which makes it possible to gain some insight into the cytotoxic vs. cytostatic properties of the compounds. Even though MTT assay is an endpoint detection method, i.e., it provides a single readout of viable cells at the end of the experiment, such a comparison offers a reliable tool to identify antiproliferative activity of compounds that are not cytotoxic.
(§2) L5178Y mouse T-cell lymphoma cells (ECACC Cat. No. 87111908) were obtained from FDA, Silver Spring, MD, USA. These were transfected with pHa MDR1/A retrovirus as described previously. ABCB1-expressing L5178YMDR cells were selected by culturing the infected cells with colchicine. The cell lines were cultured in McCoy’s 5A medium supplemented with 10% heat inactivated horse serum, 2 mM L-glutamine, and penicillin–streptomycin mixture.
(§3) MTT assay was performed in 96-well flat-bottomed microtiter plates as described before. Briefly, a 10 mM concentration stock solution in DMSO was prepared for each compound. These were diluted in 100 μL of McCoy’s 5A medium. Subsequently, 1 × 10^4 (cytotoxicity assay) or 6 × 10^3 (antiproliferative assay) T-cell mouse lymphoma cells in 100 μL of medium were added to each well, except for the medium control wells.
(§4) The culture plates were further incubated at 37 °C for 24 h (cytotoxicity assay) or 72 h (antiproliferative assay); at the end of the incubation period, 20 μL of MTT solution (from a 5 mg/mL stock) was added to each well. After incubation at 37 °C for 4 h, 100 μL of SDS solution (10% in 0.01 M HCI) was added to each well and the plates were further incubated at 37 °C overnight. The cell growth was determined by measuring the optical density at 540 nm (ref. 630 nm) with a Multiscan EX ELISA reader (Thermo Labsystems, Cheshire, WA, USA). IC50 values were calculated by variable slope nonlinear regression using the log(inhibitor) vs. normalized response of GraphPad Prism 5.01 (GraphPad Software Inc., San Diego, CA, USA).

[3] = system: L5178Y mouse T-cell lymphoma cells; assay: MTT cytotoxicity assay (24 h, 1 × 10^4 cells); type: cell-based; details: 24 h MTT, n = 3, read-out: Cytotoxicity (IC50 ± SD)
Procedure: as §1, §2, §3, §4

ABCB1 = target: T1, ABCB1 (Homo sapiens, UniProt P08183); assay: ABCB1 inhibition assay (rhodamine 123 accumulation, flow cytometry); type: cell-based; details: human, probe rhodamine 123 (5.2 µM), L5178YMDR, rhodamine 123 accumulation, n = 1
T1 construct: expressed in transfected cells; host or cells: L5178Y mouse T-cell lymphoma cells transfected with pHa MDR1/A retrovirus, selected with colchicine (L5178YMDR)
Procedure: (§5) ABCB1 inhibition was determined by the intracellular accumulation of rhodamin 123 as reported before. Briefly, 2 × 10^6 cells/mL of L5178Y and L5178YMDR cell lines were re-suspended in serum-free McCoy’s 5A medium and distributed in 0.5 mL aliquots into Eppendorf centrifuge tubes. The compounds were added at a final concentration of 2 or 20 μM and the samples were incubated for 10 min at room temperature. Tariquidar was used as positive control and DMSO as negative control; for the latter, no activity was observed. Subsequently, 10 μL (5.2 μM final concentration) of the ABCB1 substrate fluorescent dye rhodamine 123 was added and the cells were incubated further for 20 min at 37 °C, washed twice and re-suspended in 1 mL PBS for analysis. Fluorescence of the cell population was measured with a PartecCyFlow® flow cytometer (Partec, Münster, Germany). Mean fluorescence intensity percentage was calculated for the treated vs. untreated L5178YMDR cells. Inhibition percentage for the treated cells was calculated from the corresponding values of the untreated L5178Y and L5178YMDR cells, representing 100% and 0% inhibition, respectively.

[4] = system: MRC-5 human embryonal lung fibroblasts; assay: MTT antiproliferative assay (72 h); type: cell-based; details: for IC50: Homo sapiens, MRC5, MRC-5, 72 h MTT, n = 3, read-out: Antiproliferative Effect (IC50 ± SD)
Procedure: as §1
(§6) MRC-5 human embryonal lung fibroblasts (CCL-171, ATCC) were acquired from Sigma-Aldrich (Merck, KGaA, Darmstadt, Germany), and were cultured in EMEM medium containing 4.5 g/L glucose and supplemented with a non-essential amino acid mixture, a selection of vitamins, and 10% of FBS.
(§7) The adherent human fibroblast cells were seeded in 100 μL of EMEM medium overnight before each assay. Two-fold serial dilutions of the compounds (0.19–100 µM) were prepared in separate plates, then transferred to the plates containing the adherent cell lines.
as §4

L5178YMDR cells = assay: Combination assay with doxorubicin (checkerboard microplate method, MTT); type: cell-based, mouse; set-up: Dm (antilog of the x-intercept of the median-effect plot): unit not given here; details: for CIavg (weighted average CI): (CI50 + 2CI75 + 3CI90)/6
Procedure: Compounds 7, 10, 11, 13, and 14 had sufficient individual antiproliferative properties for their assessment of chemo-sensitizing activity. This was carried out as an antiproliferative assay on L5178YMDR cells in combination with doxorubicin, arranged according to the checkerboard microplate method.
The checkerboard microplate method was used to evaluate the compounds’ interaction with doxorubicin, as described before. Briefly, doxorubicin (2 mg/mL, Teva Pharmaceuticals, Budapest, Hungary) was serially diluted in the horizontal direction (100 µL per well), and the ecdysteroid was subsequently diluted in the vertical direction (50 µL per well). L5178YMDR cells were re-suspended in culture medium and added to each test well in 50 µL to contain 1 × 10^4 cells per well, and 50 µL of medium was added to the medium control wells. The plates were incubated for 72 h at 37 °C in a CO2 incubator and, at the end of the incubation period, the cell growth was determined by MTT assay as described above. Cell viability data were analyzed by the Calcusyn software using the Chou method, and drug interactions were expressed as combination index (CI) values, in which 0 < CI < 1, CI = 1, and CI > 1 refer to synergism, additivity, and antagonism, respectively.

[5] = MTT cytotoxicity assay (24 h); type: cell-based; details: human, MRC-5 human embryonal lung fibroblasts; MRC-5, 24 h MTT, n = 3; read-out: Cytotoxicity (IC50 ± SD)
Procedure: as §1, §6, §7, §4

[6] = system: L5178YMDR cells (ABCB1-expressing); assay: MTT antiproliferative assay (72 h, 6 × 10^3 cells); type: cell-based; details: Mus musculus, 72 h MTT, n = 3, read-out: Antiproliferative Effect (IC50 ± SD)
Procedure: as §1, §2, §3, §4

[7] = system: L5178Y mouse T-cell lymphoma cells; assay: MTT antiproliferative assay (72 h, 6 × 10^3 cells); type: cell-based; details: for IC50: Mus musculus
Procedure: as §1, §2, §3, §4

ABCB1 transporter = target: T2, ABCB1 transporter (Homo sapiens, UniProt P08183); assay: ABCB1 inhibition assay (rhodamine 123 accumulation, flow cytometry); type: cell-based; details: L5178YMDR, 2 or 20 µM
T2 construct: expressed in transfected cells; host or cells: L5178Y mouse T-cell lymphoma cells transfected with pHa MDR1/A retrovirus, selected with colchicine (L5178YMDR)
Procedure: as §5

[8] = drug ratio 23.2:1, with doxorubicin
[9] = drug ratio 46.4:1, with doxorubicin
[10] = drug ratio 92.8:1, with doxorubicin
[11] = drug ratio 185.6:1, with doxorubicin
[12] = drug ratio 371.2:1, with doxorubicin
[13] = L5178Y, 72 h MTT, n = 3, read-out: Antiproliferative Effect (IC50 ± SD)

| Structure (SMILES) | IC50 [2] | IC50 [3] | inhibition at 20 min, 2 µM (ABCB1) | inhibition at 20 min, 20 µM (ABCB1) | IC50 [4] | CI at ED75 (L5178YMDR cells; [8]) | CI at ED90 (L5178YMDR cells; [8]) | Dm (antilog of the x-intercept of the median-effect plot) (L5178YMDR cells; [8]) | CIavg (weighted average CI) (L5178YMDR cells; [8]) | CI at ED75 (L5178YMDR cells; [9]) | CI at ED90 (L5178YMDR cells; [9]) | Dm (antilog of the x-intercept of the median-effect plot) (L5178YMDR cells; [9]) | CIavg (weighted average CI) (L5178YMDR cells; [9]) | CI at ED75 (L5178YMDR cells; [10]) | CI at ED90 (L5178YMDR cells; [10]) | Dm (antilog of the x-intercept of the median-effect plot) (L5178YMDR cells; [10]) | CIavg (weighted average CI) (L5178YMDR cells; [10]) | CI at ED75 (L5178YMDR cells; [11]) | CI at ED90 (L5178YMDR cells; [11]) | Dm (antilog of the x-intercept of the median-effect plot) (L5178YMDR cells; [11]) | also measured |
| --- | --- | --- | --- | --- | --- | --- | --- | --- | --- | --- | --- | --- | --- | --- | --- | --- | --- | --- | --- | --- | --- |
| CC(C)(O)CC[C@@H](O)[C@](C)(O)[C@H]1CC[C@@]2(O)C3=CC(=O)[C@@H]4C[C@@H](O)[C@@H](O)C[C@]4(C)[C@H]3CC[C@]12C [20-hydroxyecdysone] |  |  |  |  |  |  |  |  |  |  |  |  |  |  |  |  |  |  |  |  | MasR activity, in words [1]: agonist |
| CC(=O)[C@H]1CC[C@@]2(F)C3=CC(=O)[C@@H]4C[C@H]5OC(C)(C)O[C@H]5C[C@]4(C)[C@H]3CC[C@]12C [Compound 11] | 81.9 ± 2.9 µM | 91.9 ± 9.3 µM | -0.57% | -0.51% | 10 ± 2.1 µM | 0.56 | 0.41 | 7.00 | 0.52 | 0.55 | 0.39 | 11.66 | 0.51 | 0.53 | 0.38 | 15.83 | 0.49 | 0.66 | 0.48 | 24.06 | CIavg (weighted average CI) (L5178YMDR cells; [11]): 0.61; CI at ED75 (L5178YMDR cells; [12]): 0.72; CI at ED90 (L5178YMDR cells; [12]): 0.55; Dm (antilog of the x-intercept of the median-effect plot) (L5178YMDR cells; [12]): 28.63; CIavg (weighted average CI) (L5178YMDR cells; [12]): 0.67; IC50 at 24 h [5]: > 100 µM; IC50 [6]: 55.7 ± 5.9 µM; IC50 [7, 13]: 31.8 ± 2.1 µM |
| CC(=O)N[C@H]1CC=C2C3=CC(=O)[C@@H]4C[C@H]5OC(C)(C)O[C@H]5C[C@]4(C)[C@H]3CC[C@@]21C [Compound 13] | > 100 µM | > 100 µM | 0.09% | -0.01% | 12 ± 1.9 µM | 0.55 | 0.49 | 8.17 | 0.53 | 0.51 | 0.39 | 14.17 | 0.48 | 0.51 | 0.47 | 17.54 | 0.50 | 0.68 | 0.65 | 29.89 | direct ABCB1 / efflux pump inhibition, in words (ABCB1 transporter): inactive; selective antiproliferative activity against both tumor cell lines ([4]; tumor cell lines vs MRC-5): ca. 2.5 times; interaction with doxorubicin, in words (L5178YMDR cells; checkerboard, 72 h): relevant synergism with doxorubicin already at 50% inhibition; CIavg (weighted average CI) (L5178YMDR cells; [11]): 0.67; IC50 at 24 h [5]: 35 ± 3.2 µM; IC50 [6]: 4.8 ± 0.6 µM; IC50 [7, 13]: 4.6 ± 0.8 µM; IC50 ([7]; text summary for both lymphoma cell lines (L5178Y and L5178YMDR), read-out: antiproliferative activity on the lymphoma cell lines (IC50)): ~4.7 µM; antiproliferative activity stronger than cytotoxicity ([7]; lymphoma cell lines, ratio of cytotoxic to antiproliferative IC50): over 20 times |
| CC(=O)N[C@H]1CC[C@@]2(F)C3=CC(=O)[C@@H]4C[C@H]5OC(C)(C)O[C@H]5C[C@]4(C)[C@H]3CC[C@]12C [Compound 14] | > 100 µM | > 100 µM | 0.2% | -0.12% | > 100 µM | 0.73 | 0.63 | 9.04 | 0.70 | 0.72 | 0.60 | 13.53 | 0.68 | 0.86 | 0.74 | 20.47 | 0.82 | 1.26 | 1.24 | 30.97 | CIavg (weighted average CI) (L5178YMDR cells; [11]): 1.25; IC50 at 24 h [5]: > 100 µM; IC50 [6]: 65.9 ± 2.1 µM; IC50 [7, 13]: 71.6 ± 1.5 µM |
